Results reported in PMC4658428 (Frontiers in Microbiology, 2015).

Experiments:
Format in all cases: cell-based
[1] = tested on: LdtR mutant R37A, lacZ reporter in B. subtilis
[2] = tested on: S. meliloti strain SMP4A (ΔldtRSMc-pBBR1MCS-5::LdtR(T43A))
[3] = tested on: S. meliloti strain SMP4B (ΔldtRSMc-pBBR1MCS-5::LdtR(L61A))
[4] = tested on: S. meliloti strain SMP4C (ΔldtRSMc-pBBR1MCS-5::LdtR(F64A))
[5] = tested on: LdtR mutant Y81A, lacZ reporter in B. subtilis

CCc1oc2ccccc2c1C(=O)c1cc(Br)c(O)c(Br)c1 [benzbromarone]
decrease in β-galactosidase activity [1]: around 40%
Growth rate constant, k [2]: 0.056 ± 0.004 generations/h
Mean generation time [2]: 17.9 h
Growth rate constant, k [3]: 0.056 ± 0.005 generations/h
Mean generation time [3]: 17.9 h
Growth rate constant, k [4]: 0.058 ± 0.003 generations/h
Mean generation time [4]: 17.2 h
decrease in β-galactosidase activity [5]: around 40%
